Assay results taken from ChEMBL document CHEMBL1137683, “Synthesis and in vitro cysticidal activity of new benzimidazole derivatives” (Eur J Med Chem, 2009).

Legend:
[1] = Octanol-water partition coefficient, log P of the compound; format: physicochemical
[2] = tested on: Taenia crassiceps; test: Antiparasitic activity against Taenia crassiceps cysts ORF strain assessed as cysts mortality at 1.70 uM after 11 days by Trypan blue exclusion test; format: functional
[3] = tested on: Taenia crassiceps; test: Antiparasitic activity against Taenia crassiceps cysts ORF strain assessed as cysts mortality at 0.28 uM after 11 days by Trypan blue exclusion test; format: functional
[4] = tested on: Taenia crassiceps; test: Antiparasitic activity against Taenia crassiceps cysts WFU strain assessed as cysts mortality at 0.28 uM after 11 days by Trypan blue exclusion test; format: functional
[5] = tested on: Taenia crassiceps; test: Antiparasitic activity against Taenia crassiceps cysts WFU strain assessed as cysts mortality at 1.70 uM after 11 days by Trypan blue exclusion test; format: functional

SMILES	logP [1]	Activity [2] [%]	Activity [3] [%]	Activity [4] [%]	Activity [5] [%]
CNC(=O)c1ccc2[nH]c(NC(=O)OC)nc2c1	0.68	0	0		
COC(=O)Nc1nc2cc(C(=O)N3CCCCC3)ccc2[nH]1	1.65	62	37	9.3	16.7
COC(=O)Nc1nc2cc(Oc3cccc4ccccc34)c(Cl)cc2[nH]1	3.56				
COC(=O)Nc1nc2cc(C(=O)OCc3ccc([N+](=O)[O-])cc3)ccc2[nH]1	3.12	68	41	22.6	26
CSc1nc2cc(C(=O)N3CCN(C)CC3)ccc2[nH]1		0	0		
CSc1nc2cc(C(=O)N3CCCCC3)ccc2[nH]1		0	0		
CSc1nc2cc(C(=O)N3CCCCC3)c(Cl)cc2[nH]1		0	0		
CCCSc1ccc2[nH]c(N(C)C(=O)OC)nc2c1		0	0		
CCCSc1ccc2nc(NC(=O)OC)n(C)c2c1		0	0		
CCCSc1ccc2c(c1)nc(NC(=O)OC)n2C		0	0		
CSc1nc2cc(C(=O)N3CCC(C)CC3)ccc2[nH]1		0	0		
CSc1nc2cc(C(=O)N3CCC(C)CC3)c(Cl)cc2[nH]1		0	0		
COC(=O)Nc1nc2cc(Cl)ccc2[nH]1	2.09	23	15	5	8
CCC[S+]([O-])c1ccc2[nH]c(NC(=O)OC)nc2c1 (stereo not given) [ALBENDAZOLE OXIDE]	1.54	88	46	25	35
